Assay results: publication PMC9295539 (Antimicrobial Agents and Chemotherapy, 2022)
Where two headings read alike, the source gives them in different places.

Columns and labels:
[1] = system: Giardia lamblia GS clone H7; assay: G. lamblia GS clone H7 trophozoite growth, ATP-based bioluminescence assay (BacTiter-Glo), 1,536-well; assay type: cell-based; settings: for Selectivity index (CC50/EC50): HEK293T CC50 / G. lamblia GS clone H7 EC50
Method: (§1) Compounds were screened at 5 μM with metronidazole (40 μM) as an inhibitor control and dimethyl sulfoxide (DMSO) as a neutral control. […] These primary hits were immediately assayed for reconfirmation and mammalian cytotoxicity against HEK293T cells in an 8-point dose-response format.
The primary screen was conducted at 5 μM. […] All source plates were 384-well acoustic, transfer-compatible plates with compounds prediluted in DMSO at either 2 mM or 10 mM. […] Primary screening was done with a single replicate, whereas dose-response testing was carried out in triplicate.
To prevent attachment to the bottle and tubing of the dispenser cassette, the bottle containing the culture was kept on ice throughout the dispensing process. […] The bags were heat sealed and the anaerobic generator was activated according to the manufacturer’s instructions. […] Luminescence was read on a ViewLux uHTS microplate imager (PerkinElmer) with medium-sensitivity luminescence at 30 s of exposure.
(§2) Relative luminescence unit (RLU) values were analyzed in Genedata Screener (v13.0-Standard). RLU values were normalized to neutral controls minus inhibitors (DMSO-treated wells minus metronidazole-treated wells). For single-point primary assay plates, an additional run-wise median correction was applied to reduce screen artifacts, whereas no corrections were applied to triplicate dose-response plates. For the mammalian cytotoxicity assays, RLU values were uploaded into Genedata Screener, and the data were normalized to those for DMSO-treated wells minus puromycin-treated wells.

[2] = HEK293T cytotoxicity counterscreen, luminescent ATP viability assay; settings: human
Method: as §1
(§3) Experimental details for the assays were described previously ([50]). […] Assays were performed as previously reported ([51]).
as §2

HEK293T cells = assay: in vitro
Method: as §1, §3, §2

[3] = system: G. lamblia CBG99 (assemblage A); assay: G. lamblia CBG99 luciferase strain cell growth inhibition assay; assay type: cell-based, Giardia lamblia; settings: for inhibition at 5 µM / EC50: Giardia duodenalis; for inhibition at 5 µM / inhibition of G. lamblia growth: G. lamblia CBG99, compound at 5 μM; for EC50: assemblage A, read-out: EC50 against G. lamblia strain CBG99
Method: Subsequent assays, including the mouse model of infection, used the G. lamblia click beetle green (CBG99) strain, which was grown and assayed as previously described ([11], [49]).
In vitro reconfirmation and expanded tests against EGFR-TKIs using the G. lamblia CBG99 strain were performed as previously described ([11]). […] The PK studies were performed in groups of 3 mice per compound. […] All animal experiments were approved by the Institutional Animal Care and Use Committees at the University of Washington.

[4] = system: G. lamblia WB6 (assemblage A); assay: G. lamblia WB6 cell growth inhibition assay; assay type: cell-based; settings: Giardia duodenalis, read-out: EC50 against G. lamblia strain WB6
[5] = system: metronidazole-resistant 713-M3 strain; assay: Metronidazole-resistant G. lamblia 713-M3 cell growth inhibition assay; assay type: cell-based; settings: Giardia duodenalis, read-out: EC50 against G. lamblia strain 713-M3
[6] = Giardia duodenalis, 48 h, 8-point dose response, triplicate, read-out: 48-h Giardia GS clone H7 EC50
[7] = 48 h, 8-point dose response, triplicate, read-out: 48-h Giardia GS clone H7 EC50
[8] = Giardia duodenalis, Table 2, assemblage B, read-out: EC50 against G. lamblia strain GS clone 7

Row | EC50 [1, 6] [µM] | SMILES | Selectivity index (CC50/EC50) [1] | CC50 at 72 h ([2]; HEK293T cells) [µM] | also measured
1 | 6.45 ± 0.11 | CC(=O)Oc1ccccc1C(=O)Nc1ncc([N+](=O)[O-])s1 [Nitazoxanide] | >4 | > 25 | 
2 | 2.49 ± 0.04 | Cn1c([N+](=O)[O-])cnc1N1CCN(S(C)(=O)=O)C1=O [Satranidazole] | >10 | > 25 | 
3 | 6.57 ± 0.09 | Cc1ncc([N+](=O)[O-])n1CC(C)O (stereo not shown) [Secnidazole] | >4 |  | CC50 at 72 h [2]: > 25 µM
4 |  | CCOC(=O)/C(=C/c1ncc([N+](=O)[O-])n1C)C(C)=O [Propenidazole] |  |  | EC50 [1, 7]: 2.55 ± 0.04 µM; CC50 (HEK293T cells): 16.9 ± 0.05 µM
5 |  | CS(=O)(=O)CCNCc1ccc(-c2ccc3ncnc(Nc4ccc(OCc5cccc(F)c5)c(Cl)c4)c3c2)o1 [lapatinib ditosylate] |  |  | inhibition at 5 µM [3]: ≤ 50%
6 | 3.01 ± 0.06 | COC(=S)NCCn1c([N+](=O)[O-])cnc1C [Carnidazole] | >8 | > 25 | 
7 |  | C=CC(=O)Nc1cccc(Oc2nc(Nc3ccc(N4CCN(C)CC4)c(F)c3)nc3[nH]ccc23)c1.O=C(O)/C=C\C(=O)O [avitinib maleate] |  |  | inhibition of G. lamblia growth [3]: ≤ 50%
8 | 5.7 ± 0.08 | CCS(=O)(=O)CCn1c([N+](=O)[O-])cnc1C [Tinidazole] | >4 |  | CC50 at 72 h [2]: > 25 µM
9 | 6.42 ± 0.06 | O=C1NCCN1c1ncc([N+](=O)[O-])s1 [Niridazole] | >4 |  | CC50 at 72 h [2]: > 25 µM
10 | 2.43 ± 0.23 | Cc1ncc([N+](=O)[O-])n1CCOC(=O)c1ccccc1 [Benzoyl metronidazole] | >10 | > 25 | 
11 |  | Cn1c([N+](=O)[O-])cnc1C(O)c1cc(C(C)(C)C)ccc1O (stereo not shown) [Abunidazole] |  |  | EC50 [1, 7]: 1.08 ± 0.02 µM; CC50 (HEK293T cells): > 25 µM
12 | 6.39 ± 0.16 | CSc1ccc(OCc2ncc([N+](=O)[O-])n2C)cc1 [Fexinidazole] | >4 | > 25 | 
13 |  | N#C/C(=C\c1ccc(O)c(O)c1)C(=O)NCc1ccccc1 [AG-490] |  |  | inhibition of G. lamblia growth [3]: ≤ 50%
14 |  | CS(=O)(=O)OCCN(CCBr)c1c(C(=O)NCCOP(=O)(O)O)cc([N+](=O)[O-])cc1[N+](=O)[O-] [PR-104] | >13 |  | EC50 ([1]; Giardia duodenalis, 48 h, read-out: 48-h Giardia GS clone H7 EC50): 1.98 ± 0.07 µM; CC50 at 72 h [2]: > 25 µM
15 | 7.11 ± 0.28 | CC(=O)Nc1ncc([N+](=O)[O-])s1 [Aminitrozole] | >3 | > 25 | 
16 | 6.11 ± 0.11 | Cn1c([N+](=O)[O-])cnc1/C=N/N1CC(CN2CCOCC2)OC1=O (stereo not shown) [Moxnidazole] | >4 | > 25 | 

Row | EC50 [1, 6] [µM] | SMILES | Selectivity index (CC50/EC50) [1] | CC50 at 72 h ([2]; HEK293T cells) [µM] | also measured
17 | 5.78 ± 0.07 | CCCN(CCC)c1ccc(/N=N/c2ccccc2C(=O)O)cc1 [Propyl red] | >4 | > 25 | 
18 |  | CN(C)C/C=C/C(=O)Nc1cc2c(Nc3ccc(F)c(Cl)c3)ncnc2cc1O[C@H]1CCOC1 [afatinib] |  |  | inhibition at 5 µM [3]: ≤ 50%
19 |  | COc1cc2ncnc(Nc3cccc(Br)c3)c2cc1OC.Cl [PD153035-HCl] |  |  | inhibition of G. lamblia growth [3]: ≤ 50%
20 |  | C=CC(=O)Nc1cccc(Nc2nc(Nc3ccc(N4CCN(C(C)=O)CC4)cc3OC)ncc2C(F)(F)F)c1 [rociletinib] |  |  | inhibition at 5 µM [3]: ≤ 50%
21 | 1.82 ± 0.04 | Cc1ncc([N+](=O)[O-])n1CC(O)CCl (stereo not shown) [Ornidazole] | >14 |  | CC50 at 72 h [2]: > 25 µM
22 |  | CNC(=O)CN1CCC(Oc2cc3c(Nc4cccc(Cl)c4F)ncnc3cc2OC)CC1 [AZD8931] |  |  | inhibition at 5 µM [3]: ≤ 50%
23 |  | C#Cc1cccc(Nc2ncnc3cc(OCCOC)c(OCCOC)cc23)c1 [erlotinib] |  |  | inhibition at 5 µM [3]: ≤ 50%
24 |  | COc1cc2ncnc(Nc3ccc(F)c(Cl)c3)c2cc1NC(=O)/C=C/CN1CCCCC1 [dacomitinib] |  |  | inhibition at 5 µM [3]: ≤ 50%
25 | 0.72 ± 0.06 | Cn1c([N+](=O)[O-])cnc1/C=C/c1ccnc(N)n1 [Azanidazole] | >35 | > 25 | 
26 |  | COc1cc2ncnc(Nc3cccc(Cl)c3)c2cc1OC [AG-1478] |  |  | inhibition of G. lamblia growth [3]: ≤ 50%
27 |  | C=CC(=O)Nc1ccc2ncnc(Nc3cccc(Br)c3)c2c1 [PD168393] |  |  | inhibition of G. lamblia growth [3]: ≤ 50%
28 |  | N#CC(C#N)=Cc1ccc(O)c(O)c1 [AG-18] |  |  | inhibition of G. lamblia growth [3]: ≤ 50%
29 | 5.8 ± 0.13 | O=[N+]([O-])c1ccc(-c2nc3ccccc3[nH]2)o1 [2-(5-Nitro-2-furyl) benzimidazole] | >4 | > 25 | 
30 | 1.85 ± 0.68 | Cc1ncc([N+](=O)[O-])n1CCc1ccncc1 [Panidazole] | >14 | > 25 | 
31 |  | CCOc1cc2ncc(C#N)c(Nc3ccc(OCc4ccccn4)c(Cl)c3)c2cc1NC(=O)/C=C/CN(C)C [neratinib] |  |  | inhibition at 5 µM [3]: ≤ 50%

Row | SMILES | EC50 [1, 6] [µM] | Selectivity index (CC50/EC50) [1] | CC50 at 72 h ([2]; HEK293T cells) [µM] | also measured
32 | CS(=O)(=O)Nc1ccc(C(=O)O[C@@H](Cc2c(Cl)c[n+]([O-])cc2Cl)c2ccc(OC(F)F)c(OCC3CC3)c2)cc1OCC1CC1 [CHF-6001] | 2.03 ± 0.1 | >12 | > 25 | 
33 | CC(=O)C[C@H]1CCCCN1 [Pelletierine] | 20.3 ± 0.07 | >1 |  | EC50 [1, 8]: 20.3 ± 0.07 µM; CC50 [2]: > 25 µM; EC50 [4]: > 25 µM; EC50 [3]: > 25 µM; EC50 [5]: > 25 µM
34 | Cc1ncc([N+](=O)[O-])n1CCO [Metronidazole] | 7.12 ± 0.06 | >3 |  | EC50 [1, 8]: 7.12 ± 0.06 µM; CC50 at 72 h [2]: > 25 µM; EC50 ([4]; assemblage A): 2.33 ± 0.06 µM; EC50 [3]: 2.87 ± 0.34 µM; EC50 [5]: > 25 µM
